Results published in patent publication US20060257935A1, “Hematopoietic factor production promoter” (Ajinomoto Co., Inc., priority 2005, published 2006).

Experiments:
[1] = test system: mouse bone marrow cells (CFU-E); assay: In vitro mouse CFU-E colony assay (methylcellulose semi-solid medium); assay type: cell-based
Method: An in vitro mouse CFU-E colony assay was conducted in accordance with the following method. After a female BDF-1 mouse at 10 weeks of age (Charles River Japan, Inc.) was killed by the cervical dislocation method, bone marrow cells were isolated from the femur and suspended in an IMDM medium (Invitrogen) containing 10% FCS (JRH Bioscience Inc). The bone marrow cells were centrifuged at 1500 rpm for 10 minutes at 4° C. and the precipitated bone marrow cells were resuspended in an amino acid-free IMDM medium and the number of cells was measured. […] At 28 hours after the culture was carried out under the condition of 37° C. and 5% CO2, the number of CFU-E colonies was measured using an inverted microscope. […] The data is expressed as a mean value±SEM. […]

[2] = test system: MC3T3-E1 cells; conditions: cited from earlier work
[3] = test system: normal rats; conditions: repeated administration; cited from earlier work
[4] = test system: IGF-1; assay: IGF-1 mRNA quantification by quantitative PCR in bone marrow cells isolated from renal failure rat; assay type: cell-based; conditions: 2 hours after addition of arginine, 400 μM or 600 μM vs 100 μM
Excerpt: (§1) A renal failure rat (a rat from which ⅚ of kidney was removed) was produced as follows. A male Wistar rat at 8 weeks of age (Charles River Japan, Inc.) was subjected to the total extirpation of the right kidney and the ⅔ extirpation of the renal cortex of the left kidney under anesthesia with Nembutal and was sutured. After the surgery, the rat was housed under normal housing condition (CRF-1 diet, Charles River Japan, Inc.). Six weeks after the surgery the renal failure rat was killed by diethyl ether, then both femurs were excised and bone marrow cells were isolated. The isolated bone marrow cells were suspended in an IMDM medium with blood amino acid concentration containing 10% FCS. […]
(§2) The quantification of mRNA of each of the hematopoietic factors was determined by the quantitative PCR method mentioned below. Based on the sequences of activin (rat Inhibin betaA), SCF and IGF-1 registered in NCBI (GenBank accession Nos. M37482, NM021843, and NM178886, respectively in the order), oligonucleotide primers to be used for the quantitative PCR method were synthesized. […]
(§3) The quantitative PCR method was in accordance with the method described in SYBRGreen PCR kit (TOYOBO., Ltd.). […] After the quantitative PCR, the presence or absence and size of an amplified product were confirmed by agarose gel electrophoresis. […]

[5] = test system: patients with renal anemia; conditions: cited from earlier work
[6] = Blood arginine concentration after oral administration to rats; assay type: in vivo, rat; conditions: oral single-dose administration of arginine at 1.2 g/kg
[7] = test system: SCF; assay: SCF mRNA quantification by quantitative PCR in bone marrow cells isolated from renal failure rat; assay type: cell-based; conditions: 2 hours after addition of arginine, 400 μM or 600 μM vs 100 μM
Excerpt: as §1, §2, §3

[8] = test system: porcine primary hepatocyte; conditions: added to medium for porcine primary hepatocyte culture at a high concentration; cited from earlier work
[9] = test system: activin (rat Inhibin betaA); assay: Activin mRNA quantification by quantitative PCR in bone marrow cells isolated from renal failure rat; assay type: cell-based; conditions: 2 hours after addition of arginine, 400 μM or 600 μM vs 100 μM
Excerpt: as §1, §2, §3

Molecule: N=C(N)NCCC[C@H](N)C(=O)O [arginine]
- number of CFU-E colonies ([1]; 600 μM arginine added to isolated mouse bone marrow cells, compared with 170 μM): significantly increases
- gene expression of IGF-1 ([2]; MC3T3-E1 cells, arginine added at a higher concentration): increases
- secretion amount of IGF-1 ([2]; MC3T3-E1 osteoblast-like cell line): increases
- amount of hemoglobin and red blood cells [3]: increased
- production of IGF-1 (relative mRNA level per total RNA) [4]: promotes the production
- condition of anemia (number of red blood cells) [5]: improved
- blood arginine concentration [6]: about 600 μM
- production of SCF (relative mRNA level per total RNA) [7]: promotes the production
- gene expression of IGF-1 [8]: increases
- production of activin (relative mRNA level per total RNA) [9]: promotes the production

Molecule: O=C(O)[C@@H]1CCCN1 [proline]
- gene expression of IGF-1 [8]: increases

Molecule: C[C@@H](O)[C@H](N)C(=O)O [threonine]
- gene expression of IGF-1 [8]: increases

Molecule: N[C@@H](Cc1c[nH]c2ccccc12)C(=O)O [triptophan]
- gene expression of IGF-1 [8]: increases

B1: follistatin: follistatin (FSN, anti-activin, R&D Co.), inhibitor for activin (protein, UniProt P19883 30-344, looked up)
Follistatin: GNCWLRQAKNGRCQVLYKTELSKEECCSTGRLSTSWTEEDVNDNTLFKWMIFNGGAPNCIPCKETCENVDCGPGKKCRMNKKNKPRCVCAPDCSNITWKGPVCGLDGKTYRNECALLKARCKEQPELEVQYQGRCKKTCRDVFCPGSSTCVVDQTNNAYCVTCNRICPEPASSEQYLCGNDGVTYSSACHLRKATCLLGRSIGLAYEGKCIKAKSCEDIQCTGGKKCLWDFKVGRGRCSLCDELCPDSKSDEPVCASDNATYASECAMKEAACSSGVLLEVKHSGSCNSISEDTEEEEEDEDQDYSFPISSILEW
- inhibition of CFU-E-colony stimulating activity of arginine ([1]; follistatin 100 ng/ml, 600 μM arginine, 28 hours culture): inhibited
